Experimental data from patent US11427548B2 (Arvinas Operations, Inc., priority 2015, dated 2022).
Like-named read-outs stand apart in the source and are kept apart here.

Target: T1, Androgen Receptor (Homo sapiens, UniProt P10275)
T1 construct: endogenous in cells; host or cells: VCaP cells
T1 sequence (P10275 1-920): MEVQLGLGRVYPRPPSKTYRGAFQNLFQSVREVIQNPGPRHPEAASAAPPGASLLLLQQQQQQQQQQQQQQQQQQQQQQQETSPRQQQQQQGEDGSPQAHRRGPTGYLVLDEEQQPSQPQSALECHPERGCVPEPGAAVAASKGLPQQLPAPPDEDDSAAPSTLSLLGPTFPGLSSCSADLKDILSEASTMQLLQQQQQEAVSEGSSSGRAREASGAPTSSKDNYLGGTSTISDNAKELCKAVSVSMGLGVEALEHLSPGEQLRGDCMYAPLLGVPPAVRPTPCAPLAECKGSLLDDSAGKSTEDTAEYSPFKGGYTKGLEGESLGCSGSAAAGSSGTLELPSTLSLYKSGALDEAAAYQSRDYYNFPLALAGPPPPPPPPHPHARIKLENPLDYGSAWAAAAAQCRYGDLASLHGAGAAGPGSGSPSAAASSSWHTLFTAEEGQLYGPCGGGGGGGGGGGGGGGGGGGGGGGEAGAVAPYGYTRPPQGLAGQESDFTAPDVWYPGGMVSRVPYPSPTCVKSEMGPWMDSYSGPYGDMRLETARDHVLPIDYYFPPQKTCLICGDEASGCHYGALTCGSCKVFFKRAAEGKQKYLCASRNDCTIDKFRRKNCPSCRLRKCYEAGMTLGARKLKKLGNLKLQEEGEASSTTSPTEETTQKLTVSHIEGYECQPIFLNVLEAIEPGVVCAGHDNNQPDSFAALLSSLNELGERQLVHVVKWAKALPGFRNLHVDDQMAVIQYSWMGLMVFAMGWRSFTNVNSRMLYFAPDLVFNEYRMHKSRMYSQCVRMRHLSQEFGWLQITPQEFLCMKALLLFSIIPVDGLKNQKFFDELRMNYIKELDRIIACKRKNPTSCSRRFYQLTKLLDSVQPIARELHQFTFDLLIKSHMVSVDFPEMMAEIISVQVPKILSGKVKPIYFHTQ
Test: Androgen Receptor ELISA assay (PathScan AR ELISA) in VCaP cells: AR degradation, Dmax and DC50
Format: cell-based
In short: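 VCaP cells, 30,000/well, grown ≥3 days in phenol red-free RPMI with 5% charcoal-stripped FBS; compound added in 0.1% DMSO with 0.1 nM R1881, 7 half-log doses, 24 h. Lysate AR quantified by PathScan sandwich ELISA, HRP/TMB read at 450 nm, giving DC50 and Dmax.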

[1] = read-out: VCaP DC50; concentration that caused 50% Androgen Receptor degradation, VCaP cells (Table 32)
[2] = VCaP cells; Table 36; read-out: VCaP DC50
[3] = read-out: VCaP DC50; VCaP cells; Table 36
[4] = VCaP, VCaP cells; Table 36; read-out: VCaP Dmax (%)

Compound: Cc1nccn1-c1ccc([C@H](C)NC(=O)[C@@H]2C[C@@H](O)CN2C(=O)C(C(C)C)n2cc(OCCCOCCCCCOc3ccc(N4C(=S)N(c5ccc(C#N)c(C(F)(F)F)c5)C(=O)C4(C)C)cc3)cn2)nc1 (mixture of isomers) [Example 423]
- Dmax (VCaP, read-out: VCaP Dmax (%)): < 25%
- DC50 (read-out: VCaP DC50; VCaP cells; Table 35): > 501 nM

Compound: Cc1ncoc1-c1ccc(CNC(=O)[C@@H]2C[C@@H](O)CN2C(=O)[C@@H](NC(=O)COCCCOc2ccc(Oc3ccc(N4C(=S)N(c5cnc(C#N)c(C(F)(F)F)c5)C(=O)C4(C)C)cc3)cc2)C(C)(C)C)cc1 [Example 386]
- DC50 (VCaP cells; Table 34; read-out: VCaP DC50): < 50 nM
- Dmax (VCaP, VCaP cells; Table 34; read-out: VCaP Dmax (%)): > 71%

Compound: Cc1ncsc1-c1ccc(CNC(=O)[C@@H]2C[C@@H](O)CN2C(=O)[C@@H](NC(=O)COCCC(O)COc2ccc(-c3ccc(N4C(=S)N(c5ccc(C#N)c(C(F)(F)F)c5)C(=O)C4(C)C)cc3)cc2)C(C)(C)C)cc1 (stereo partly drawn) [Example 129, (2S,4R)-1-[(2S)-2-(2-{4-[4-(4-{3-[4-cyano-3-(trifluoromethyl)phenyl]-5,5-dimethyl-4-oxo-2-sulfanylideneimidazolidin-1-yl}phenyl)phenoxy]-3-hydroxybutoxy}acetamido)-3,3-dimethylbutanoyl]-4-hydroxy-N-{[4-(4-methyl-1,3-thiazol-5-yl)phenyl]methyl}pyrrolidine-2-carboxamide]
- Dmax (VCaP, read-out: VCaP Dmax (%)): 51 to 70%
- DC50 [1]: < 50 nM

Compound: Cc1ncsc1-c1ccc(CNC(=O)[C@@H]2C[C@@H](O)CN2C(=O)[C@@H](NC(=O)C(C)Oc2ccc(OCCOc3ccc(N4C(=S)N(c5ccc(C#N)c(C(F)(F)F)c5)C(=O)C4(C)C)cc3)cc2)C(C)(C)C)cc1 (stereo partly shown) [Example 374]
- Dmax (VCaP, read-out: VCaP Dmax (%)): 26 to 50%
- DC50 (read-out: VCaP DC50; VCaP cells; Table 34): < 50 nM

Compound: Cc1ncsc1-c1ccc(CNC(=O)[C@@H]2C[C@@H](O)CN2C(=O)[C@@H](NC(=O)COCCCCNc2ccc(C(=O)N[C@H]3C(C)(C)[C@H](Oc4ccc(C#N)c(Cl)c4)C3(C)C)cc2)C(C)(C)C)cc1 [Example 175, (2S,4R)-1-[(2S)-3,3-dimethyl-2-(2-{4-[(4-{[trans-3-(3-chloro-4-cyanophenoxy)-2,2,4,4-tetramethylcyclobutyl]carbamoyl}phenyl)amino]butoxy}acetamido)butanoyl]-4-hydroxy-N-{[4-(4-methyl-1,3-thiazol-5-yl)phenyl]methyl}pyrrolidine-2-carboxamide]
- Dmax (VCaP, highest percentage of Androgen Receptor degradation observed, VCaP cells (Table 32); read-out: VCaP Dmax (%)): 51 to 70%
- DC50 (concentration that caused 50% Androgen Receptor degradation, VCaP cells (Table 32); read-out: VCaP DC50): < 50 nM

Compound: Cc1ncsc1-c1ccc([C@H](C)NC(=O)C2C[C@@H](O)CN2C(=O)[C@@H](NC(=O)CN2CCN(CCC3(c4ccc(C(=O)N[C@H]5C(C)(C)[C@H](Oc6ccc(C#N)c(C(F)(F)F)c6)C5(C)C)cc4)COC3)CC2)C(C)(C)C)cc1 (stereo partly drawn) [Example 674, (2S,4R)-1-((S)-2-(2-(4-(2-(3-(4-(((1r,3r)-3-(4-cyano-3-(trifluoromethyl)phenoxy)-2,2,4,4-tetramethylcyclobutyl)carbamoyl)phenyl)oxetan-3-yl)ethyl)piperazin-1-yl)acetamido)-3,3-dimethylbutanoyl)-4-hydroxy-N-((S)-1-(4-(4-methylthiazol-5-yl)phenyl)ethyl)pyrrolidine-2-carboxamide]
- DC50 [2]: < 50 nM
- Dmax (VCaP, read-out: VCaP Dmax (%)): 51 to 70%

Compound: Cc1nccn1-c1ccc([C@H](C)NC(=O)[C@@H]2C[C@@H](O)CN2C(=O)C(C(C)C)n2cc(OCCCOCCCCCOc3ccc(N4C(=S)N(c5ccc(C#N)c(C(F)(F)F)c5)C(=O)C4(C)C)cc3)cn2)cc1 (stereo in doubt) [Example 612, (2S,4R)-1-((R)-2-(4-(3-((5-(4-(3-(4-cyano-3-(trifluoromethyl)phenyl)-5,5-dimethyl-4-oxo-2-thioxoimidazolidin-1-yl)phenoxy)pentyl)oxy)propoxy)-1H-pyrazol-1-yl)-3-methylbutanoyl)-4-hydroxy-N-((S)-1-(4-(2-methyl-1H-imidazol-1-yl)phenyl)ethyl)pyrrolidine-2-carboxamide]
- VCaP Dmax (%) (VCaP cells; Table 36): _+
- DC50 [3]: > 501 nM

Compound: CC(C)(C)[C@H](NC(=O)COCCN1CCN(c2ccc(C(=O)N[C@H]3C(C)(C)[C@H](Oc4ccc(C#N)c(Cl)c4)C3(C)C)cn2)CC1)C(=O)N1C[C@H](O)C[C@H]1C(=O)NCc1cc(F)ccc1F [Example 775, N-((1r,3r)-3-(3-chloro-4-cyanophenoxy)-2,2,4,4-tetramethylcyclobutyl)-6-(4-(2-(2-(((S)-1-((2S,4R)-2-((2,5-difluorobenzyl)carbamoyl)-4-hydroxypyrrolidin-1-yl)-3,3-dimethyl-1-oxobutan-2-yl)amino)-2-oxoethoxy)ethyl)piperazin-1-yl)nicotinamide]
- DC50 [2]: > 501 nM
- Dmax [4]: < 25%

Compound: Cc1ncsc1-c1ccc([C@H](C)NC(=O)C2C[C@@H](O)CN2C(=O)C(NC(=O)CN2CC3(CC(N4CCN(c5ccc(C(=O)NC6C(C)(C)C(Oc7ccc(C#N)c(Cl)c7)C6(C)C)cn5)CC4)C3)C2)C(C)(C)C)cc1 (stereo partly drawn) [Example 814, N-((1r,3r)-3-(3-chloro-4-cyanophenoxy)-2,2,4,4-tetramethylcyclobutyl)-6-(4-(2-(2-(((S)-1-((2S, 4R)-4-hydroxy-2-(((S)-1-(4-(4-methylthiazol-5-yl)phenyl)ethyl)carbamoyl)pyrrolidin-1-yl)-3,3-dimethyl-1-oxobutan-2-yl)amino)-2-oxoethyl)-2-azaspiro [3.3]heptan-6-yl)piperazin-1-yl) nicotinamide]
- DC50 [2]: < 50 nM
- Dmax [4]: 26 to 50%

Compound: Cc1ncsc1-c1ccc([C@H](C)NC(=O)[C@@H]2C[C@@H](O)CN2C(=O)[C@@H](NC(=O)COCC2CCN(c3ccc(C(=O)N[C@H]4C(C)(C)[C@H](Oc5ccc(C#N)c(Cl)c5)C4(C)C)cc3)CC2)C(C)(C)C)cc1 [Example 447]
- DC50 (VCaP cells; Table 35; read-out: VCaP DC50): < 50 nM
- Dmax (VCaP, VCaP cells; Table 35; read-out: VCaP Dmax (%)): > 71%

Compound: CC(C)(C)[C@H](NC(=O)COCCCCOc1ccc(-c2ccc(N3C(=S)N(c4ccc(C#N)c(Cl)c4)C(=O)C3(C)C)c(F)c2)cc1)C(=O)N1C[C@H](O)C[C@H]1C(=O)NCc1ccc(-c2cnco2)cc1 [Example 106, (2S,4R)-1-[(2S)-2-{2-[4-(4-{4-[3-(3-chloro-4-cyanophenyl)-5,5-dimethyl-4-oxo-2-sulfanylideneimidazolidin-1-yl]-3-fluorophenyl}phen-oxy)butoxy]acetamido}-3,3-dimethylbutanoyl]-4-hydroxy-N-{[4-(1,3-oxazol-5-yl)phenyl]methyl}pyrrolidine-2-carboxamide]
- Dmax (VCaP, read-out: VCaP Dmax (%)): > 71%
- DC50 [1]: < 50 nM

Compound: Cc1ncsc1-c1ccc([C@H](C)NC(=O)C2C[C@@H](O)CN2C(=O)[C@@H](NC(=O)CN2C[C@@H]3C[C@H]2CN3CCCc2ccc(C(=O)N[C@H]3C(C)(C)[C@H](Oc4ccc(C#N)c(Cl)c4)C3(C)C)cc2)C(C)(C)C)cc1 (stereo partly drawn) [Example 807, (2S,4R)-1-((S)-2-(2-((1R,4R)-5-(3-(4-(((1r,3R)-3-(3-chloro-4-cyanophenoxy)-2,2,4,4-tetramethylcyclobutyl)carbamoyl)phenyl)propyl)-2,5-diazabicyclo[2.2.1]heptan-2-yl)acetamido)-3,3-dimethylbutanoyl)-4-hydroxy-N-((S)-1-(4-(4-methylthiazol-5-yl)phenyl)ethyl)pyrrolidine-2-carboxamide]
- DC50 [2]: < 50 nM

Compound: Cc1ncsc1-c1ccc([C@H](C)NC(=O)[C@@H]2C[C@@H](O)CN2C(=O)[C@H](C(C)C)n2cc(Oc3cccc(OCCCCCOc4ccc(N5C(=S)N(c6ccc(C#N)c(C(F)(F)F)c6)C(=O)C5(C)C)cc4)c3)cn2)cc1 [Example 600, (2S,4R)-1-((S)-2-(4-(3-((5-(4-(3-(4-cyano-3-(trifluoromethyl)phenyl)-5,5-dimethyl-4-oxo-2-thioxoimidazolidin-1-yl)phenoxy)pentyl)oxy)phenoxy)-1H-pyrazol-1-yl)-3-methylbutanoyl)-4-hydroxy-N-((S)-1-(4-(4-methylthiazol-5-yl)phenyl)ethyl)pyrroli-dine-2-carboxamide]
- Dmax (VCaP, read-out: VCaP Dmax (%)): 26 to 50%
- DC50 [3]: > 501 nM
